How the values were obtained:
NAMPT = NAMPT (Homo sapiens (Human), UniProt P43490); experiment: Biochemical Inhibition Assay (NAMPT enzymatic reaction, NMN by mass spectrometry); conditions: recombinant His-tagged NAMPT 33 nM, 1 μM NAM, 30 minutes; read-out: Biochem IC50
Protocol: Biochemical Inhibition Assay NAMPT Protein Purification Recombinant His-tagged NAMPT was produced in E. coli cells, purified over a Ni column, and further purified over a size-exclusion column by XTAL Biostructures. The NAMPT Enzymatic Reaction The NAMPT enzymatic reactions were carried out in Buffer A (50 mM Hepes pH 7.5, 50 mM NaCl, 5 mM MgCl2, and 1 mM THP) in 96-well V-bottom plates. The compound titrations were performed in a separate dilution plate by serially diluting the compounds in DMSO to make a 100× stock. […] Background and signal strength was determined by addition (or non-addition) of a serial dilution of NMN to a pre-quenched enzyme and cofactor mix. Quantification of NMN A mass spectrometry-based assay was used to measure the NAMPT reaction product (NMN) and the internal control (L-Cystathionine). NMN and L-Cystathionine were detected using the services of Biocius Lifesciences with the RapidFire system. In short, the NMN and L-Cystathionine are bound to a graphitic carbon cartridge in 0.1% formic acid, eluted in 30% acetonitrile buffer, and injected into a Sciex 4000 mass spectrometer. The components of the sample were ionized with electrospray ionization and the positive ions were detected. […] The fragments are quantified and the analyzed by the following method. % Inhibitions are Determined Using this Method. First the NMN signal is normalized to the L-Cystathionine signal by dividing the NMN signal by the L-Cystathionine signal for each well. The signal from the background wells are averaged and subtracted from the test plates. […] IC50s are Determined Using Excel and this Formula.

A2780 cells = experiment: In-Vitro Cell Proliferation Assay (SRB); assay type: cell-based
Protocol: In-Vitro Cell Proliferation Assay […] After overnight incubation at 37° C. and 5% CO2, the compound titrations were performed in a separate dilution plate by serially diluting the compounds in DMSO to make a 1000× stock. The compounds were then further diluted to 10× final concentration in culture media, whereupon 20 μL of each dilution was added to the plated cells with controls (e.g. DMSO and blank) to make a final volume of 200 μL. The final DMSO concentration in each well was 0.1%. The plates were then incubated for 72 hours at 37° C. in a 5% CO2 incubator. The number of viable cells was then assessed using sulforhodamine B (SRB) assay. Cells were fixed at 4° C. for 1 hour with the addition of 50 μL 30% trichloroacetic acid (TCA) to make a final concentration of 6% TCA. The plates were washed four times with H2O and allowed to dry for at least 1 hour, whereupon 100 μL of a […] SRB in 1% acetic acid solution was added to each well and incubated at room temperature for at least 30 minutes. The plates were then washed three times with 1% acetic acid, dried, and treated with 100 μL of 10 mM Tris-Base solution. The plates were then read in a microplate reader at an absorbance of 570 nm. Background was generated on a separate plate with media only. Method for Determining % Inhibition First, the signals from the background plate are averaged, then the background was subtracted from the test plates. […] Formula for Determining IC50 Values: […] Specificity of Cytotoxicity. Inhibition of NAMPT could be reversed by the addition of NAM or NMN. The specificity of the compounds were determined via cell viability assay in the presence of the compound and either NAM or NMN. Percent inhibitions were determined using the method given above.

Sequence of NAMPT (P43490 whole entry): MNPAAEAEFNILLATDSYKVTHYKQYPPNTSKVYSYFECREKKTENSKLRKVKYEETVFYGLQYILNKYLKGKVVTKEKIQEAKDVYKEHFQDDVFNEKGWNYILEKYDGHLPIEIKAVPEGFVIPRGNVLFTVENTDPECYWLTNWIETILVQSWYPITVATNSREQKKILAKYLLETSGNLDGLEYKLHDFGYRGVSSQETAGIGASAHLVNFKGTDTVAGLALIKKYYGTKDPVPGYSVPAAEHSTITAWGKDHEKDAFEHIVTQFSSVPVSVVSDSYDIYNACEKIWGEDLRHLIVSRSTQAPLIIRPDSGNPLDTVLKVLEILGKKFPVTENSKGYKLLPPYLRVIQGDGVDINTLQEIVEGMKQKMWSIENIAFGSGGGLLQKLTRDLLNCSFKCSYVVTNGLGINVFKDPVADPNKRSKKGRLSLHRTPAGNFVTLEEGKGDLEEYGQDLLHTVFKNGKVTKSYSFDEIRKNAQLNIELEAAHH

Row | IC50 (NAMPT) | IC50 (A2780 cells; Homo sapiens, A2780, 72 h) | Structure (SMILES) | IC50 (A2780 cells; 72 hours)
1 | 3.4 nM | 4.1 nM | N#CN=C(NCc1ccc(S(=O)(=O)c2ccnc(N3CCOCC3)c2Cl)cc1)Nc1ccncc1 [1-({4-[3-chloro-2-(morpholin-4-yl)pyridine-4-sulfonyl]phenyl}methyl)-2-cyano-3-(pyridin-4-yl)guanidine] | –
2 | 2.6 nM | 4.9 nM | COc1ccc(S(=O)(=O)c2ccc(CNC(=NC#N)Nc3ccncc3)cc2)cc1Cl [1-({4-[(3-chloro-4-methoxybenzene)sulfonyl]phenyl}methyl)-2-cyano-3-(pyridin-4-yl)guanidine] | –
3 | 1.9 nM | 1.6 nM | Cc1ccc(S(=O)(=O)c2ccc(CNC(=NC#N)Nc3ccncc3)cc2)cc1Cl [1-({4-[(3-chloro-4-methylbenzene)sulfonyl]phenyl}methyl)-2-cyano-3-(pyridin-4-yl)guanidine] | –
4 | 4.9 nM | 5.8 nM | CCCOc1ccc(S(=O)(=O)c2ccc(CNC(=NC#N)Nc3ccncc3)cc2)cc1Cl [1-({4-[(3-chloro-4-propoxybenzene)sulfonyl]phenyl}methyl)-2-cyano-3-(pyridin-4-yl)guanidine] | –
5 | 5.1 nM | 6.9 nM | N#CN=C(NCc1ccc(S(=O)(=O)c2cc(F)cc(Cl)c2)cc1)Nc1ccncc1 [1-({4-[(3-chloro-5-fluorobenzene)sulfonyl]phenyl}methyl)-2-cyano-3-(pyridin-4-yl)guanidine] | –
6 | 4.6 nM | 1.6 nM | COc1cc(Cl)cc(S(=O)(=O)c2ccc(CNC(=NC#N)Nc3ccncc3)cc2)c1 [1-({4-[(3-chloro-5-methoxybenzene)sulfonyl]phenyl}methyl)-2-cyano-3-(pyridin-4-yl)guanidine] | –
7 | 3.3 nM | 1.6 nM | Cc1cc(Cl)cc(S(=O)(=O)c2ccc(CNC(=NC#N)Nc3ccncc3)cc2)c1 [1-({4-[(3-chloro-5-methylbenzene)sulfonyl]phenyl}methyl)-2-cyano-3-(pyridin-4-yl)guanidine] | –
8 | 5 nM | 7.3 nM | CC(=O)c1ccc(S(=O)(=O)c2ccc(CNC(=NC#N)Nc3ccncc3)cc2)cc1 [1-({4-[(4-acetylbenzene)sulfonyl]phenyl}methyl)-2-cyano-3-(pyridin-4-yl)guanidine] | –
9 | 3 nM | 1.9 nM | COc1cc(Cl)ccc1S(=O)(=O)c1ccc(CNC(=NC#N)Nc2ccncc2)cc1 [1-({4-[(4-chloro-2-methoxybenzene)sulfonyl]phenyl}methyl)-2-cyano-3-(pyridin-4-yl)guanidine] | –
10 | 2 nM | 1.9 nM | N#CN=C(NCc1ccc(S(=O)(=O)c2ccc(Cl)c(F)c2)cc1)Nc1ccncc1 [1-({4-[(4-chloro-3-fluorobenzene)sulfonyl]phenyl}methyl)-2-cyano-3-(pyridin-4-yl)guanidine] | –
11 | 3.6 nM | 3.7 nM | N#CN=C(NCc1ccc(S(=O)(=O)c2ccc(Cl)cc2)cc1)Nc1ccncc1 [1-({4-[(4-chlorobenzene)sulfonyl]phenyl}methyl)-2-cyano-3-(pyridin-4-yl)guanidine] | –
12 | 5 nM | 6.4 nM | COc1ccc(Cl)cc1S(=O)(=O)c1ccc(CNC(=NC#N)Nc2ccncc2)cc1 [1-({4-[(5-chloro-2-methoxybenzene)sulfonyl]phenyl}methyl)-2-cyano-3-(pyridin-4-yl)guanidine] | –
13 | 32 nM | 2710 nM | N#C/N=C(/NCc1cccnc1)Nc1ccc(S(=O)(=O)c2ccccc2)cc1 [1-[4-(benzenesulfonyl)phenyl]-2-cyano-3-(pyridin-3-ylmethyl)guanidine] | –
14 | 3.3 nM | 1.6 nM | N#CN=C(NCc1ccc(S(=O)(=O)c2cc(Cl)cc(C(F)(F)F)c2)cc1)Nc1ccncc1 [1-[(4-{[3-chloro-5-(trifluoromethyl)benzene]sulfonyl}phenyl)methyl]-2-cyano-3-(pyridin-4-yl)guanidine] | –
15 | 1 nM | 1.5 nM | N#CN=C(NCc1ccc(S(=O)(=O)c2ccc(Cl)c(C(F)(F)F)c2)cc1)Nc1ccncc1 [1-[(4-{[4-chloro-3-(trifluoromethyl)benzene]sulfonyl}phenyl)methyl]-2-cyano-3-(pyridin-4-yl)guanidine] | –
16 | 1 nM | 5.3 nM | N#C/N=C(\NCCc1ccc(S(=O)(=O)c2ccccc2)cc1)Nc1ccncc1 [1-{2-[4-(benzenesulfonyl)phenyl]ethyl}-2-cyano-3-(pyridin-4-yl)guanidine] | –
17 | – | 9.4 nM | N#CN=C(NCc1ccc(S(=O)(=O)c2cccc3c2OCO3)cc1)Nc1ccncc1 [1-{[4-(2H-1,3-benzodioxole-4-sulfonyl)phenyl]methyl}-2-cyano-3-(pyridin-4-yl)guanidine] | –
18 | 1.8 nM | 3.3 nM | N#CN=C(NCc1ccc(S(=O)(=O)c2ccc3c(c2)OCO3)cc1)Nc1ccncc1 [1-{[4-(2H-1,3-benzodioxole-5-sulfonyl)phenyl]methyl}-2-cyano-3-(pyridin-4-yl)guanidine] | –
19 | 266 nM | 326 nM | N#C/N=C(\NCc1ccc(S(=O)(=O)c2ccccc2)cc1)NCc1ccn2ccnc2c1 [2-cyano-1-(imidazo[1,2-a]pyridin-7-ylmethyl)-3-(4-(phenylsulfonyl)benzyl)guanidine] | –
20 | 8.6 nM | 7 nM | CN(C)c1ncc(S(=O)(=O)c2ccc(CNC(=NC#N)Nc3ccncc3)cc2)cn1 [2-cyano-1-({4-[2-(dimethylamino)pyrimidine-5-sulfonyl]phenyl}methyl)-3-(pyridin-4-yl)guanidine] | –
21 | 1.9 nM | 3.3 nM | N#CN=C(NCc1ccc(S(=O)(=O)c2ccc(N3CCOCC3)nc2)cc1)Nc1ccncc1 [2-cyano-1-({4-[6-(morpholin-4-yl)pyridine-3-sulfonyl]phenyl}methyl)-3-(pyridin-4-yl)guanidine] | –
22 | 4 nM | 3.5 nM | Cc1cccc(S(=O)(=O)c2ccc(CNC(=NC#N)Nc3ccncc3)cc2)c1C [2-cyano-1-({4-[(2,3-dimethylbenzene)sulfonyl]phenyl}methyl)-3-(pyridin-4-yl)guanidine] | –
23 | 2.4 nM | 1.5 nM | Cc1ccc(S(=O)(=O)c2ccc(CNC(=NC#N)Nc3ccncc3)cc2)c(C)c1 [2-cyano-1-({4-[(2,4-dimethylbenzene)sulfonyl]phenyl}methyl)-3-(pyridin-4-yl)guanidine] | –
24 | 3.5 nM | – | N#C/N=C(\NCc1ccc(S(=O)(=O)c2ccc(-c3ccccc3)cc2)cc1)Nc1ccncc1 [2-cyano-1-({4-[(4-phenylbenzene)sulfonyl]phenyl}methyl)-3-(p] [2-cyano-1-({4-[(4-phenylbenzene)sulfonyl]phenyl}methyl)-3-(pyridin-4-yl)guanidine] | –
25 | – | 6.2 nM | N#C/N=C(\NCc1ccc(S(=O)(=O)c2ccc(-c3ccccc3)cc2)cc1)Nc1ccncc1 [2-cyano-1-({4-[(4-phenylbenzene)sulfonyl]phenyl}methyl)-3-(pyridin-4-yl)guanidine] | –
26 | – | 9.4 nM | N#CN=C(NCc1ccc(S(=O)(=O)c2ccc(-n3cccn3)c(F)c2)cc1)Nc1ccncc1 [2-cyano-1-[(4-{[3-fluoro-4-(1H-pyrazol-1-yl)benzene]sulfonyl}phenyl)methyl]-3-(pyridin-4-yl)guanidine] | –

Row | Structure (SMILES) | IC50 (NAMPT) | IC50 (A2780 cells; Homo sapiens, A2780, 72 h) | IC50 (A2780 cells; 72 hours)
27 | N#CN=C(NCc1ccc(S(=O)(=O)c2ccccc2OC(F)(F)F)cc1)Nc1ccncc1 [2-cyano-1-(pyridin-4-yl)-3-[(4-{[2-(trifluoromethoxy)benzene]sulfonyl}phenyl)methyl]guanidine] | 4 nM | – | 0.6 nM

From patent US9676721B2, “Compounds and compositions for the inhibition of NAMPT” (FORMA TM, LLC, priority 2010, dated 2017)
